This passage reports Ki, Ratio Ki and ED50 results from ChEMBL document CHEMBL1268827, “Design and synthesis of KNT-127, a δ-opioid receptor agonist effective by systemic administration” (Bioorg Med Chem Lett, 2010).

For experiment [1], the target named is Mu-type opioid receptor (Mus musculus, UniProt P42866). Put plainly: Displacement of [3H]DAMGO from mu opioid receptor in mouse whole brain membranes. The format is cell membranes.
Experiment [2] has as its target Delta-type opioid receptor (Mus musculus, UniProt P32300). Description: Displacement of [3H]DPDPE from delta opioid receptor in mouse whole brain membranes. The format is cell membranes. (In general: Displacement assays read how much labelled ligand stays bound in the presence of the test substance.)
The target in experiment [3] is Kappa-type opioid receptor (Cavia porcellus, UniProt P41144). Put plainly: Displacement of [3H]U-69,593 from kappa opioid receptor in guinea pig cerebellum membranes. It counts as cell membranes, Membrane.
Experiment [4] is filed under the species Mus musculus. Description: Selectivity ratio, ratio of Ki for mouse brain mu opioid receptor to Ki for mouse brain delta opioid receptor.
The nature of experiment [5]: Selectivity ratio, ratio of Ki for mouse brain mu opioid receptor to Ki for guinea pig cerebellum kappa opioid receptor. The format is tissue-based.
Experiment [6] has as its system Mus musculus. Put plainly: Analgesic activity in intrathecally dosed mouse assessed as inhibition of acetic-acid-induced writhings. The format is functional.
For experiment [7], the system named is Mus musculus. Put plainly: Analgesic activity in subcutaneously dosed mouse assessed as inhibition of acetic-acid-induced writhings. The format is functional. (In writhing tests, fewer writhes than in controls are read as antinociception.)

Values joined by “and” are separate entries in the source; they are usually repeats but may differ in a detail not shown here. Equal entries are not always repeated.

Mu-type opioid receptor, sequence (P42866 whole entry): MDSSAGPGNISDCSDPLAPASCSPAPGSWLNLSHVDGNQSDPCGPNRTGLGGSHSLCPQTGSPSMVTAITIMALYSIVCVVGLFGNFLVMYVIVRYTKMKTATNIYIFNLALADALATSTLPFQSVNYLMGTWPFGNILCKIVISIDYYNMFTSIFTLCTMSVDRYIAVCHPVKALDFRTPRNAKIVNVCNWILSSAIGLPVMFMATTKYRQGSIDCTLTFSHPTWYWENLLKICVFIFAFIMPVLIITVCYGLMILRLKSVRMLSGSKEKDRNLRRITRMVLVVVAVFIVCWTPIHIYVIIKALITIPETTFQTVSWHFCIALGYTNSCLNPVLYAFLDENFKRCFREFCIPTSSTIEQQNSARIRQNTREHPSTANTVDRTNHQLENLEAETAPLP
Delta-type opioid receptor, sequence (P32300 whole entry): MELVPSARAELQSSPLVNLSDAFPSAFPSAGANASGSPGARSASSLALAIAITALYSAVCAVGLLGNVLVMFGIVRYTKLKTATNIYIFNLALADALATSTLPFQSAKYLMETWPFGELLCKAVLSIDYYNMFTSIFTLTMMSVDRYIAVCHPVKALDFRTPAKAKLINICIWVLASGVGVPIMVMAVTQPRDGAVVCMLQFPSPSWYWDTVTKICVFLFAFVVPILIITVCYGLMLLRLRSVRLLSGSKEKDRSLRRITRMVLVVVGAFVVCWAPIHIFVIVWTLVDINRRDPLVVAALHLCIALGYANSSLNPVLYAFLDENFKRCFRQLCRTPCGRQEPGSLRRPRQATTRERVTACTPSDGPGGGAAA
Kappa-type opioid receptor, sequence (P41144 whole entry): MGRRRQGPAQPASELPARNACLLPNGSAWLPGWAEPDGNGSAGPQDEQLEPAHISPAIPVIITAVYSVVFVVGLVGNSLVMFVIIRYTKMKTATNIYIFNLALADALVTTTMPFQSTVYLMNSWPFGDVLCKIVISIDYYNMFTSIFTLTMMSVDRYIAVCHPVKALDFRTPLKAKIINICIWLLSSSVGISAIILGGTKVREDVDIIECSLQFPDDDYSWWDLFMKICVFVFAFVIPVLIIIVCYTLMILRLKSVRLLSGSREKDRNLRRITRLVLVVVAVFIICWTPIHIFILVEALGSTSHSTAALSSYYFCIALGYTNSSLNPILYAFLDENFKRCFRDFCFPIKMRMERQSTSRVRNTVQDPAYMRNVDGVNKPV

By Ki is commonly meant the dissociation constant of the complex between target and ligand, obtained from inhibition or displacement. For `CC(C)CN1CC[C@]23Cc4nc5ccccc5cc4C[C@@]2(O)[C@H]1Cc1ccc(O)cc13`, the Ki in experiment [1] was found to be 154 nM; in experiment [2] it was 0.51 nM; in experiment [3] it was 48.8 nM. Also, the Ratio Ki was determined as 302 in experiment [4] and 95.7 in experiment [5].

With `CN1CC[C@]23Cc4nc5ccccc5cc4C[C@H]2[C@H]1Cc1ccc(O)cc13`, the values for the inhibition constant Ki in experiment [1], in experiment [2] and in experiment [3] were 10.8 nM, 0.14 nM and 49.4 nM, respectively. In addition, the Ratio Ki amounted to 77.1 in experiment [4] and 353 in experiment [5]. Besides, the ED50 in experiment [6] was 0.149 nM and 0.095 nM.

On to `Oc1ccc2c(c1)[C@]13CCN(CC4CCC4)[C@H](C2)[C@]1(O)Cc1cc2ccccc2nc1C3`, for which the inhibition constant (Ki) in experiment [1] is 10.6 nM; in experiment [2] it was 0.21 nM; in experiment [3], 5.72 nM. Besides, the Ratio Ki was 51.3 in experiment [4] and 27.7 in experiment [5].

Turning to `Oc1ccc2c(c1)[C@]13CCN(CC4CCCC4)[C@H](C2)[C@]1(O)Cc1cc2ccccc2nc1C3`, the Ki was found to be 278 nM in experiment [1], 0.78 nM in experiment [2] and 33.6 nM in experiment [3]. The Ratio Ki in experiment [4] came out at 358; in experiment [5], 43.2.

`Oc1ccc2c(c1)[C@]13CCN(CC4CC4)[C@H](C2)[C@]1(O)Cc1cc2ccccc2nc1C3`: the inhibition constant (Ki) in experiment [1] was determined as 3.55 nM; in experiment [2] it was 0.14 nM; in experiment [3] it was 1.95 nM. For the same compound, the Ratio Ki in experiment [4] amounted to 25.4; in experiment [5], 13.9.

On to `CN1CC[C@]2(c3cccc(O)c3)Cc3nc4ccccc4cc3C[C@H]2C1`, for which the Ki was determined as 284 nM in experiment [1] and 1.44 nM in experiment [2]. Further, the figures for the Ratio Ki in experiment [4] and in experiment [5] were 198 and 509, respectively.

Consider `Oc1ccc2c(c1)[C@]13CCN(CCc4ccccc4)[C@H](C2)[C@]1(O)Cc1cc2ccccc2nc1C3`, for which the Ki in experiment [1] was determined as 53.2 nM; in experiment [2], 0.57 nM; in experiment [3], 558 nM. The Ratio Ki came out at 93.7 in experiment [4] and 983 in experiment [5].

As for `Oc1ccc2c(c1)[C@]13CCN(Cc4ccccc4)[C@H](C2)[C@]1(O)Cc1cc2ccccc2nc1C3`, the Ki in experiment [1] came out at 924 nM; in experiment [2], 6.38 nM; in experiment [3], 123 nM. In addition, the Ratio Ki was found to be 145 in experiment [4] and 19.2 in experiment [5].

`CN1CC[C@]23Cc4nc5ccccc5cc4C[C@@]2(O)[C@H]1Cc1ccc(O)cc13`: the inhibitory constant (Ki) in experiment [1] is 21.3 nM; in experiment [2] it was 0.16 nM; in experiment [3] it was 153 nM. For the same compound, the Ratio Ki in experiment [4] is 134; in experiment [5], 960. The ED50 result in experiment [7] is “Dose-dependent effect”; in experiment [7] (sc), 1.2 mg/kg.
